According to ChEMBL document CHEMBL3091437, “Peptide conjugates of 4-aminocyclophosphamide as prodrugs of phosphoramide mustard for selective activation by prostate-specific antigen (PSA)” (Bioorg Med Chem, 2013):
Numbered stars: 1 amine (or outer) side, 2 acyl side, 3 side chain; on linkers, the order of the positions; unused ones are H or OH. Square brackets hold non-standard residues; d marks the D form. Peptide text beside a SMILES is read from it. * marks the point of attachment. Doxorubicin(3'-N) = COc1cccc2c1C(=O)c1c(O)c3c(c(O)c1C2=O)C[C@@](O)(C(=O)CO)C[C@@H]3O[C@H]1C[C@H](N*)[C@H](O)[C@H](C)O1; X1 = O=P1(N(CCCl)CCCl)N[C@@H](N*)CCO1; Glutaryl = O=C(CCCC(=O)[*:2])[*:1]; Hyp = O=C(O)[C@@H]1C[C@@H](O)CN1; Chg = N[C@H](C(=O)O)C1CCCCC1; Suc = O=C(CCC(=O)[*:2])[*:1]

How the values were obtained:
[1] = molecular target: T1, Prostate-specific antigen (PSA) (Homo sapiens, UniProt P07288); assay: Drug metabolism assessed as PSA (unknown origin)-mediated digestion assessed as compound remaining after 4 hrs by HPLC analysis; type: ADME; conditions: PSA (prostate-specific antigen) enzyme, read-out: Drug metabolism
T1 sequence (P07288 whole entry): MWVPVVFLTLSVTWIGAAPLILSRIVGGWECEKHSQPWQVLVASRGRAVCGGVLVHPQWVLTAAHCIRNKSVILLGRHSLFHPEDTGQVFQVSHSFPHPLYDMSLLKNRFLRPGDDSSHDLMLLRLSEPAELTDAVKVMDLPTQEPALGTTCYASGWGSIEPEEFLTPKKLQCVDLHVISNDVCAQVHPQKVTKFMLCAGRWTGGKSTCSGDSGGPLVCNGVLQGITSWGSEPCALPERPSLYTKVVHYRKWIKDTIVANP

[2] = molecular target: T2, Prostate-specific antigen (Homo sapiens, UniProt P07288); assay: Prodrug activation assessed as PSA (unknown origin)-mediated digestion assessed as glutaryl-Hyp-Ala-Ser-Chg-Gln-OH level by LC-MS analysis
T2 sequence (P07288 whole entry): T1 sequence (P07288 whole entry)

[3] = molecular target: T2, Prostate-specific antigen; assay: Prodrug activation assessed as PSA (unknown origin)-mediated digestion assessed as half life at 1/100 enzyme-compound molar ratio by HPLC analysis
[4] = molecular target: T1, Prostate-specific antigen (PSA); assay: Drug metabolism assessed as PSA (unknown origin)-mediated digestion assessed as compound remaining after 50 hrs by HPLC analysis; type: ADME; conditions: PSA (prostate-specific antigen) enzyme, read-out: Drug metabolism

SMILES: C[C@H](NC(=O)[C@@H]1C[C@@H](O)CN1C(=O)CCCC(=O)O)C(=O)N[C@@H](CO)C(=O)N[C@H](C(=O)N[C@@H](CCC(N)=O)C(=O)N[C@H]1CCOP(=O)(N(CCCl)CCCl)N1)C1CCCCC1 (some centres not stated) (Glutaryl-[Hyp]AS[Chg]Q-X1)
- remaining at 4 h [1]: < 10%
- Drug metabolism [2]: Active
- t1/2 [3]: 0.917 h

SMILES: CC(C)C[C@H](NC(=O)[C@H](CCCCN)NC(=O)[C@H](CO)NC(=O)[C@H](CO)NC(=O)[C@H](Cc1cnc[nH]1)NC(=O)CCC(=O)O)C(=O)N[C@@H](CCC(N)=O)C(=O)N[C@H]1CCOP(=O)(N(CCCl)CCCl)N1 (some centres not stated) (Suc-HSSKLQ-X1)
- t1/2 [3]: 6.5 h

SMILES: CC(C)C[C@H](NC(=O)[C@H](CCCCN)NC(=O)[C@H](CO)NC(=O)CCC(=O)O)C(=O)N[C@@H](CCC(N)=O)C(=O)N[C@H]1CCOP(=O)(N(CCCl)CCCl)N1 (some centres not stated) (Suc-SKLQ-X1)
- remaining at 50 h [4]: < 10%
- t1/2 [3]: 12 h

SMILES: COc1cccc2c1C(=O)c1c(O)c3c(c(O)c1C2=O)C[C@@](O)(C(=O)CO)C[C@@H]3O[C@H]1C[C@H](NC(=O)[C@H](CC(C)C)NC(=O)[C@H](CO)NC(=O)[C@H](CCC(N)=O)NC(=O)[C@@H](NC(=O)[C@H](CO)NC(=O)[C@H](C)NC(=O)[C@@H]2C[C@@H](O)CN2C(=O)CCCC(=O)O)C2CCCCC2)[C@H](O)[C@H](C)O1 [L-377202] (Glutaryl-[Hyp]AS[Chg]QSL-{Doxorubicin(3'-N)})
- t1/2 [3]: 0.5 h
